Data set [1] concerns cultured rat kidney epithelial cell line. The note with it: cited from earlier work.
The test system of data set [2] is rat uterus; mouse seminal vesicle plus prostate. The note with it: prolonged administration; cited from earlier work.
For data set [3], the system named is (3H) DMBA binding to skin DNA. In words: [3H]DMBA binding to mouse skin DNA, topical steroid. It counts as in vivo, mouse (A/J). The source says: Skin tumors can be induced in the mouse either by weekly application of a carcinogen such as […] (DMBA), or alternatively,by a single sub-threshold dose of the carcinogen followed by twice weekly applications of the tumor promoter tetradecanoylphorbol-13-acetate (TPA). In order to exert its carcinogenic effect, DMBA must be metabolized by an NADPH-dependent mixed-function oxidase to chemically reactive intermediates which bind covalently to DNA and produce mutations leading to malignant transformation. […] This effect of DHEA very probably is a result of the inhibition of G6PDH and lowering of the intracellular pool of NADPH, which is a co-factor for the mixed-function oxidase activation of DMBA.
Binding of [^3 H]DMBA to mouse skin DNA was determined as described in Pashko, L. L., and Schwartz, A. G. (1983), Effect of food restriction, dehydroepiandrosterone, or obesity on the binding of ^3 H-7,12-dimethylbenz(a)-anthracene to mouse skin DNA, J. Gerontol., 38, 8-12. Values are mean±SD for 3 individual determinations, with pooled tissue from 2 mice used for each determination. DHEA or testosterone (400 ug in 0.2 ml acetone) was applied to the skin one hour before [^3 H]DMBA. The mean weight of the food restricted mice was 18.5±1.0 gm, n=6, of the ad libitum fed, 27.4±1.0 gm, n=6, of the ad libitum fed treated with DHEA, 28.2±0.9 gm, n=6, and of the ad libitum fed treated with testosterone, 28.3±0.9 gm, n=6, following two weeks of feeding. The average food consumed was, in gm/mouse/day, 2.2, 3.8, 3.8 and 4.0 for the food restricted, ad libitum fed, ad libitum fed plus DHEA, and ad libitum fed plus testosterone groups, respectively.

For data set [4], the system named is Epstein-Barr virus-induced transformation of human lymphocytes. The note with it: cited from earlier work.
In the next data set the test system is VY-A^vy /a mice. The note with it: long-term administration; cited from earlier work.
The test system of data set [5] is mammalian glucose-6-phosphate dehydrogenase (G6PDH). The note with it: cited from earlier work.
Data set [6] deals with seminal vesicles plus prostate glands. The experiment in a line: Androgenic and anti-androgenic activity (seminal vesicle plus prostate weight). Type of data set: in vivo, mouse (male A/J). The note with it: con't. experiment; five weeks; DHEA 0.54%; n = 5.
Data set [7] has as its system spontaneous breast cancer in C3H mice. The note with it: long-term treatment; cited from earlier work.

Turning to `C[C@]12CC[C@H](O)CC1=CC[C@@H]1[C@@H]2CC[C@]2(C)C(=O)CC[C@@H]12` [DHEA, 3β-Hydroxy-5-androst-en-17-one, reference compound], in data set [1], the “TPA stimulation of 3H-thymidine incorporation (in words)” value is “antagonizes the capacity of the tumor promoter”. For the same compound, in data set [2], the “estrogenic effect (in words)” value is “evidence of an estrogenic effect after prolonged administration”. In addition, the “SPECIFIC ACTIVITY ([3H]DMBA bound to skin DNA)” value in data set [3] (400 ug topical one hour before DMBA, ad libitum fed, Table 4) turned out to be 66 ± 13 cpm/ug DNA. Moreover, the “rate of binding of topically applied 3H-DMBA to skin DNA (in words)” value in data set [3] (topical, A/J mouse) is listed as “inhibits the rate of binding of topically applied ^3 H-DMBA to A/J mouse skin DNA”. In addition, the “inhibition of Epstein-Barr virus-induced transformation (in words)” value in data set [4] is recorded as “inhibitors of Epstein-Barr virus-induced transformation of human lymphocytes”. In addition, the “development of obesity (in words)” value in the data set on VY-A^vy /a mice was “prevented the development of obesity without suppressing appetite”. Moreover, in data set [5], the “inhibition of mammalian G6PDH (in words)” value is “potent non-competitive inhibitor of mammalian glucose-6-phosphate dehydrogenase”. In addition, the “Mean Seminal Vesicle plus Prostate Weight ± S.D.” value in data set [6] is recorded as 5.02 ± 0.41 mg/100 gm body weight. In data set [7], the “spontaneous breast cancer development (in words)” value was “markedly inhibits spontaneous breast cancer development” and the “weight gain (in words)” value is “reducing weight gain without suppressing appetite”.
